Measured values reported in patent US4970077A, “6-substituted-4-hydroxytetrahydropyran-2-one derivatives and pharmaceutical compositions containing them” (Boehringer Mannheim GmbH, priority 1988, dated 1990).

What was measured:
HMG-CoA reductase [1] = biological target: T1, HMG-CoA reductase (Rattus norvegicus, UniProt P51639); assay: Inhibition of HMG-CoA reductase in a microsome fraction from rat liver; assay type: biochemical; settings: rat liver microsomes; for HMG-CoA-reductase Inhibition in %: concentration not given, method: 10^-4 M or 10^-5 M
T1 construct: microsomes from rat livers; from tissue; host or cells: liver of cholestyramine-treated rats (reversed day/night rhythm), microsome fraction
T1 sequence (P51639 1-887): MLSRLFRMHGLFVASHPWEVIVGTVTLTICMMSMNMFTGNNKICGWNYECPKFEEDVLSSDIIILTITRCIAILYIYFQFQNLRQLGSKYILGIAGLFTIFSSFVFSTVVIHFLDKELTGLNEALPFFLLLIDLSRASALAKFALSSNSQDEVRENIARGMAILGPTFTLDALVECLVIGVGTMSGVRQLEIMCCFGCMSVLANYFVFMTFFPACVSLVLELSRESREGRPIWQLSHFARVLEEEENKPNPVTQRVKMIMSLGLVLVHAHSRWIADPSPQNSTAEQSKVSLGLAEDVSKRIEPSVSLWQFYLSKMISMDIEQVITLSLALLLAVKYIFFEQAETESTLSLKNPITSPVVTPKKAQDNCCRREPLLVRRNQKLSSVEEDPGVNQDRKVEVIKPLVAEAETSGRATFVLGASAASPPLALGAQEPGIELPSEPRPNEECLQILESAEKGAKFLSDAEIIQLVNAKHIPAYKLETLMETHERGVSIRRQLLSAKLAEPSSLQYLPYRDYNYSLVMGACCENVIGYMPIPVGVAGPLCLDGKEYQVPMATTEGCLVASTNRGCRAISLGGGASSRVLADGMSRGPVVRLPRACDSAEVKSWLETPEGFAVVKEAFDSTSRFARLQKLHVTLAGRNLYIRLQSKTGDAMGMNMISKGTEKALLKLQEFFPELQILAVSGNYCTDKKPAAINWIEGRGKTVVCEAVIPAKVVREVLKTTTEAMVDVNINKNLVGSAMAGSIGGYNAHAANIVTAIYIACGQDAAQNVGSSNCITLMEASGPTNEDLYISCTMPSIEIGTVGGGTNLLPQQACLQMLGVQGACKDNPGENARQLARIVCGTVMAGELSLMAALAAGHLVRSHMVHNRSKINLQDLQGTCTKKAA
Excerpt: Inhibition of HMG-CoA reductase in a microsome fraction from rat liver
For the determination of the HMG-CoA reductase activity, microsomes from rat livers, which had been treated for 7 days in the case of reversed day/night rhythm with cholestyramine, were separated by centrifuging. The action of the test compounds at a concentration of 10^-4 M or 10^-5 M on the formation of mevalonate from (S,R) ^14 C--HMG--CoA was investigated. The experimental conditions are described in detail by J. Huber. S. Latzien and B. Hamprecht, Hoppe-Seylers Z. Physiol. Chem., 354, 1654/1973.

HMG-CoA reductase [2] = settings: literature: Endo 1976; Alberts 1980; cited from earlier work

| SMILES | HMG-CoA-reductase Inhibition in % (HMG-CoA reductase [1]) | competitive inhibition of HMG-CoA reductase (in words) (HMG-CoA reductase [2]) | other results |
| --- | --- | --- | --- |
| O=C1C[C@H](O)C[C@@H](/C=C/c2c(Cl)cc(Cl)cc2C2CCCCCC2)O1 (relative stereo) [2 (a)] | 95% | – | – |
| O=C1C[C@H](O)C[C@@H](/C=C/c2c(Cl)cccc2C2CCCCCC2)O1 (relative stereo) [2 (b)] | 93% | – | – |
| O=C1C[C@H](O)C[C@@H](/C=C/c2c(Cl)cc(Cl)cc2C2CCCCC2)O1 (relative stereo) [2 (c)] | 90% | – | – |
| O=C1C[C@H](O)C[C@@H](/C=C/c2ccccc2C2=CCCCC2)O1 (relative stereo) [2 (i)] | – | – | inhibition at 100 µM (HMG-CoA reductase [1]; 10^-4 M): 63% |
| CC[C@H](C)C(=O)O[C@H]1CCC=C2C=C[C@H](C)[C@H](CC[C@@H]3C[C@@H](O)CC(=O)O3)[C@H]21 [compactin A] | – | competitively to inhibit HMG-CoA reductase | – |
| CC[C@H](C)C(=O)O[C@H]1C[C@@H](C)C=C2C=C[C@H](C)[C@H](CC[C@@H]3C[C@@H](O)CC(=O)O3)[C@H]21 [mevinolin] | – | competitively to inhibit HMG-CoA reductase | – |
